Source: patent publication US12377106B2, “Piperidinylpyrazine-carboxamide compounds for treating and preventing cancer and for degrading BTK” (NURIX THERAPEUTICS, INC., priority 2021, dated 2025)
“Also recorded” adds a separate entry of the source.

What was measured:
BTK = assay: Flow cytometry assay for BTK degradation in patient circulating B cells (CD19+CD3-), Phase 1a/1b trial; format: in vivo, human
Experimental: Compound 149 was administered to human patients in a Phase 1a/lb trial investigating safety and tolerability in relapsed and refractory B cell malignancies. Compound 149 was administered as a once daily oral dose first in an accelerated Phase 1a dose escalation starting at 100 mg on Day 1. The first dose levels are explored in a single patient cohort until a grade 2 adverse event has been observed. Thereafter, a traditional 3+3 escalation design is used. This 100 mg starting dose was predicted to provide similar exposure as that observed in non-human primate studies. Once a dose is selected based on all safety, efficacy, pharmacokinetic, and pharmacodynamic data available, the trial will expand in up to five expansion cohorts.
[…] of Bruton's tyrosine kinase were measured by flow cytometry in circulating B cells, including disease cells and provided in FIG. 2. This mean fluorescence intensity directly correlates with the levels of BTK protein observed in a Western blot. […] The patient's BTK levels start at different levels yet, the treatment results in the same level of degradation by Day 15, which is the first measurement after steady state concentration is achieved.
The 100 mg patient achieved greater than 80% BTK degradation at steady state. All patients at the 200 mg dose level achieved greater than 90% degradation at steady state.
The data is summarized in Table 3 below which provides the average percent BTK degradation during the last 2 weeks of the first cycle (namely Days 15, 22, and 29). In Cohort 2 (200 mg), well above 90% of BTK degradation was achieved during the steady state.
Following informed consent, peripheral blood was obtained from all patients for baseline and post Compound 149 therapy assessment of BTK and Ikaros degradation. Patient blood (5 mL) was drawn and immediately fixed in a 5 mL CytoChex™ BCT tube and stored at ambient temperature until assessment via flow cytometry. Blood samples were analyzed within 3 days post sample collection at Precision for Medicine. Additional blood was also drawn into 8 mL BD Vacutainer® CPT™ Cell Preparation Tube with Sodium Citrate. Peripheral blood mononuclear cells (PBMCs) were processed, and viability frozen according to manufacturer's protocol.
For flow staining, 1 mL blood was treated with 1×BD PharmLyse to facilitate red blood cell lysing. Remaining leukocytes were washed with staining buffer (SB) containing Dulbecco's Phosphate Buffered Saline (DPBS) without Calcium or Magnesium, 1% bovine serum albumin (BSA), 10 mM HEPES, 1 mM EDTA, and 0.01% sodium azide. Cell pellet was stained with fluorophore-conjugated cell surface markers antibodies against CD45, CD3, CD4, CD8, CD14, CD16, CD19 and CD56 prepared in BD Brilliant Stain buffer for 25 minutes at room temperature.
Following cell surface staining, cells were washed twice with SB and then fixed and permeabilized for one hour at room temperature with eBioscience FoxP3/Transcription Factor Staining Buffer set according to the manufacturer's instructions. Washed cells were then stained with unconjugated BTK antibody made in 1× Permeabilization buffer) for 30 minutes. This was followed by another 30-minute incubation with anti-rabbit Alexa488 secondary antibody also prepared in 1× Permeabilization buffer for BTK detection. After incubation, the cells were washed twice with 1× Permeabilization Buffer and then resuspended in SB. Control samples containing fluorescence minus two markers (FM2) were used for background controls and were stained for all surface markers in the panel excluding BTK.
The samples were transferred to BD TruCount tubes before acquisition on a BD LSR Fortessa using predetermined BD FACS Diva software (v8.0) application settings. Data analysis was performed using FlowJo software (v10).
Single lymphocytes were gated for B cells (CD19+CD3−), and the geometric mean fluorescence intensity (MFI) of BTK was calculated. The MFI of B cells in FM2 control was used to quantify background staining. […]

[1] = test system: novel BTK mutations emerging post BTKi-treatment; assay: Degradation of novel BTK mutations emerging post BTKi-treatment (FIG. 6); format: cell-based; conditions: multiple novel BTK mutations emerging post BTKi-treatment
[2] = average of patients 1, 2, 3, 4, 6 (100 mg and 200 mg)
[3] = average of patients with data (100 mg and 200 mg)
[4] = patient 1 (CLL), 100 mg once daily oral
[5] = patient 2 (CLL), 200 mg once daily oral
[6] = patient 3 (MCL), 200 mg once daily oral
[7] = patient 4 (WM), 200 mg once daily oral
[8] = patient 6 (SLL), 200 mg once daily oral

SMILES: NC(=O)c1ncc(N2CCCCC2)nc1Nc1ccc(C2CCN(C[C@@H]3CCN(c4ccc5c(c4)C(=O)N(C4CCC(=O)NC4=O)C5=O)C3)CC2)cc1 (stereo partly drawn) [Compound 149]
- day on which maximum BTK degradation was achieved (BTK; DLBCL patient, 300 mg, BTK MFI in CD19+ B cells, FIG. 8): 8 days
- duration of BTK degradation (BTK; DLBCL patient, 300 mg, FIG. 8): sustained through day 29
- duration of BTK degradation (BTK; after steady state Cycle 1 Day 15, prior to starting Cycle 2): sustained through Cycle 1 Day 29
- level of BTK protein in circulating B cells (BTK MFI) (BTK; all patients treated, once daily oral regimen): dramatically decreases the level of BTK protein in all patients treated; also recorded: time-dependent decrease of BTK levels
- % BTK Degraded, Day 2, Average (BTK; [2]): 56.5%
- % BTK Degraded, Day 8, Average (BTK; [2]): 80.4%
- % BTK Degraded, Day 22, Average (BTK; [3]): 92.1%
- % BTK Degraded, Day 29, Average (BTK; [3]): 90.1%
- % BTK Degraded, Day 15, Average (BTK; average of patients with data (100 mg and 200 mg), steady state Cycle 1 Day 15): 90.1%
- BTK Degradation, Day 2 (BTK; [4]): 62.8%
- BTK Degradation, Day 8 (BTK; [4]): 76.9%
- BTK Degradation, Day 15 (BTK; [4]): 78.0%
- BTK Degradation, Day 22 (BTK; [4]): 85.5%
- BTK Degradation, Day 29 (BTK; [4]): 82.0%
- BTK Degradation, Day 56 (BTK; [4]): 81.4%
- BTK Degradation, Avg. Steady State (BTK; patient 1 (CLL), 100 mg once daily oral, average of Days 15, 22 and 29): 81.8%
- BTK Degradation, Day 2 (BTK; [5]): 75.1%
- BTK Degradation, Day 8 (BTK; [5]): 90.5%
- BTK Degradation, Day 15 (BTK; [5]): 96.1%
- BTK Degradation, Day 22 (BTK; [5]): 95.4%
- BTK Degradation, Day 29 (BTK; [5]): 96.1%
- BTK Degradation, Day 56 (BTK; [5]): 96.0%
- BTK Degradation, Avg. Steady State (BTK; patient 2 (CLL), 200 mg once daily oral, average of Days 15, 22 and 29): 95.9%
- BTK Degradation, Day 2 (BTK; [6]): 74.0%
- BTK Degradation, Day 8 (BTK; [6]): 92.7%
- BTK Degradation, Day 15 (BTK; [6]): 94.6%
- BTK Degradation, Day 22 (BTK; [6]): 95.4%
- BTK Degradation, Day 29 (BTK; [6]): 92.3%
- BTK Degradation, Day 56 (BTK; [6]): 94.7%
- BTK Degradation, Avg. Steady State (BTK; patient 3 (MCL), 200 mg once daily oral, average of Days 15, 22 and 29): 94.1%
- BTK Degradation, Day 2 (BTK; [7]): 63.6%
- BTK Degradation, Day 8 (BTK; [7]): 56.8%
- BTK Degradation, Day 15 (BTK; [7]): 91.5%
- BTK Degradation, Avg. Steady State (BTK; patient 4 (WM), 200 mg once daily oral, only Day 15 available): 91.5%
- BTK Degradation, Day 2 (BTK; [8]): 6.9%
- BTK Degradation, Day 8 (BTK; [8]): 85.1%
- BTK degradation at 24 hours after the initial dose (BTK; patients 1, 2, 3 and 4, 100 mg or 200 mg): 62.8-75.1%
- BTK degradation at steady state (BTK; the 100 mg patient): greater than 80%
- degradation of mutant BTK [1]: degrades multiple novel BTK mutations emerging post BTKi-treatment
